Measurements as given in PMC11033320, “Activation of p53 signaling and regression of breast and prostate carcinoma cells by spirooxindole-benzimidazole small molecules” (Frontiers in Pharmacology, 2024).

What was measured:
[1] = tested on: HOP-92; experiment: NCI anticancer screening, Non-Small Cell Lung Cancer HOP-92; format: cell-based; details: Homo sapiens; HOP-92, 10 μM; read-out: % Growth Inhibition (GI %)
Text: (§1) The compound has been processed according to standard method NCI-60 Human Tumor Cell Lines Screen for organic compound at development therapeutic program (DTP). Requests for access to this national resource can be submitted online at: […]

[2] = tested on: SF-295; experiment: NCI anticancer screening, CNS Cancer SF-295; format: cell-based; details: Homo sapiens; SF-295, 10 μM; read-out: % Growth Inhibition (GI %)
Text: as §1

[3] = tested on: NCI/ADR-RES; experiment: NCI anticancer screening, Ovarian Cancer NCI/ADR-RES; format: cell-based; details: Homo sapiens, read-out: % Growth Inhibition (GI %)
Text: as §1

[4] = tested on: NCI-H460; experiment: NCI anticancer screening, Non-Small Cell Lung Cancer NCI-H460; format: cell-based; details: Homo sapiens; NCI-H460, 10 μM; read-out: % Growth Inhibition (GI %)
Text: as §1

[5] = tested on: TK-10; experiment: NCI anticancer screening, Renal Cancer TK-10; format: cell-based; details: Homo sapiens; TK-10, 10 μM; read-out: % Growth Inhibition (GI %)
Text: as §1

[6] = tested on: SF-539; experiment: NCI anticancer screening, CNS Cancer SF-539; format: cell-based; details: Homo sapiens; SF-539, 10 μM; read-out: % Growth Inhibition (GI %)
Text: as §1

[7] = tested on: HCT-116; experiment: NCI anticancer screening, Colon Cancer HCT-116; format: cell-based; details: Homo sapiens; HCT-116, 10 μM; read-out: % Growth Inhibition (GI %)
Text: as §1

[8] = tested on: SR; experiment: NCI anticancer screening, Leukemia SR; format: cell-based; details: Homo sapiens, read-out: % Growth Inhibition (GI %)
Text: as §1

[9] = tested on: SNB-75; experiment: NCI anticancer screening, CNS Cancer SNB-75; format: cell-based; details: Homo sapiens; SNB-75, 10 μM; read-out: % Growth Inhibition (GI %)
Text: as §1

[10] = tested on: MDA-MB-468; experiment: NCI anticancer screening, Breast Cancer MDA-MB-468; format: cell-based; details: Homo sapiens, read-out: % Growth Inhibition (GI %)
Text: as §1

[11] = tested on: LOX IMVI; experiment: NCI anticancer screening, Melanoma LOX IMVI; format: cell-based; details: Homo sapiens, read-out: % Growth Inhibition (GI %)
Text: as §1

[12] = tested on: SW-620; experiment: NCI anticancer screening, Colon Cancer SW-620; format: cell-based; details: Homo sapiens; SW-620, 10 μM; read-out: % Growth Inhibition (GI %)
Text: as §1

[13] = tested on: SF-268; experiment: NCI anticancer screening, CNS Cancer SF-268; format: cell-based; details: Homo sapiens; SF-268, 10 μM; read-out: % Growth Inhibition (GI %)
Text: as §1

[14] = tested on: SK-MEL-2; experiment: NCI anticancer screening, Melanoma SK-MEL-2; format: cell-based; details: Homo sapiens; SK-MEL-2, 10 μM; read-out: % Growth Inhibition (GI %)
Text: as §1

[15] = tested on: BT-549; experiment: NCI anticancer screening, Breast Cancer BT-549; format: cell-based; details: Homo sapiens; BT-549, 10 μM; read-out: % Growth Inhibition (GI %)
Text: as §1

[16] = tested on: EKVX; experiment: NCI anticancer screening, Non-Small Cell Lung Cancer EKVX; format: cell-based; details: Homo sapiens, read-out: % Growth Inhibition (GI %)
Text: as §1

[17] = tested on: MCF7; experiment: NCI anticancer screening, Breast Cancer MCF7; format: cell-based; details: Homo sapiens; MCF7, 10 μM; read-out: % Growth Inhibition (GI %)
Text: as §1

[18] = tested on: NCI-H322M; experiment: NCI anticancer screening, Non-Small Cell Lung Cancer NCI-H322M; format: cell-based; details: Homo sapiens, read-out: % Growth Inhibition (GI %)
Text: as §1

[19] = tested on: HCT-15; experiment: NCI anticancer screening, Colon Cancer HCT-15; format: cell-based; details: Homo sapiens; HCT-15, 10 μM; read-out: % Growth Inhibition (GI %)
Text: as §1

[20] = tested on: CCRF-CEM; experiment: NCI anticancer screening, Leukemia CCRF-CEM; format: cell-based; details: Homo sapiens, read-out: % Growth Inhibition (GI %)
Text: as §1

[21] = tested on: HS 578T; experiment: NCI anticancer screening, Breast Cancer HS 578T; format: cell-based; details: Homo sapiens, read-out: % Growth Inhibition (GI %)
Text: as §1

[22] = tested on: KM12; experiment: NCI anticancer screening, Colon Cancer KM12; format: cell-based; details: Homo sapiens; KM12, 10 μM; read-out: % Growth Inhibition (GI %)
Text: as §1

[23] = tested on: OVCAR-5; experiment: NCI anticancer screening, Ovarian Cancer OVCAR-5; format: cell-based; details: Homo sapiens; OVCAR-5, 10 μM; read-out: % Growth Inhibition (GI %)
Text: as §1

[24] = tested on: SK-MEL-5; experiment: NCI anticancer screening, Melanoma SK-MEL-5; format: cell-based; details: Homo sapiens; SK-MEL-5, 10 μM; read-out: % Growth Inhibition (GI %)
Text: as §1

[25] = tested on: MDA-MB-435; experiment: NCI anticancer screening, Melanoma MDA-MB-435; format: cell-based; details: Homo sapiens; MDA-MB-435, 10 μM; read-out: % Growth Inhibition (GI %)
Text: as §1

[26] = tested on: SN12C; experiment: NCI anticancer screening, Renal Cancer SN12C; format: cell-based; details: Homo sapiens, read-out: % Growth Inhibition (GI %)
Text: as §1

[27] = tested on: K-562; experiment: NCI anticancer screening, Leukemia K-562; format: cell-based; details: Homo sapiens, K562; K-562, 10 μM; read-out: % Growth Inhibition (GI %)
Text: as §1

[28] = tested on: M14; experiment: NCI anticancer screening, Melanoma M14; format: cell-based; details: Homo sapiens; M14, 10 μM; read-out: % Growth Inhibition (GI %)
Text: as §1

[29] = tested on: UO-31; experiment: NCI anticancer screening, Renal Cancer UO-31; format: cell-based; details: Homo sapiens; UO-31, 10 μM; read-out: % Growth Inhibition (GI %)
Text: as §1

[30] = tested on: SNB-19; experiment: NCI anticancer screening, CNS Cancer SNB-19; format: cell-based; details: Homo sapiens; SNB-19, 10 μM; read-out: % Growth Inhibition (GI %)
Text: as §1

[31] = tested on: OVCAR-8; experiment: NCI anticancer screening, Ovarian Cancer OVCAR-8; format: cell-based; details: Homo sapiens; OVCAR-8, 10 μM; read-out: % Growth Inhibition (GI %)
Text: as §1

[32] = tested on: T-47D; experiment: NCI anticancer screening, Breast Cancer T-47D; format: cell-based; details: Homo sapiens, T47D, read-out: % Growth Inhibition (GI %)
Text: as §1

[33] = tested on: U251; experiment: NCI anticancer screening, CNS Cancer U251; format: cell-based; details: Homo sapiens, U-251; U251, 10 μM; read-out: % Growth Inhibition (GI %)
Text: as §1

[34] = tested on: NCI-H23; experiment: NCI anticancer screening, Non-Small Cell Lung Cancer NCI-H23; format: cell-based; details: Homo sapiens; NCI-H23, 10 μM; read-out: % Growth Inhibition (GI %)
Text: as §1

[35] = tested on: OVCAR-4; experiment: NCI anticancer screening, Ovarian Cancer OVCAR-4; format: cell-based; details: Homo sapiens; OVCAR-4, 10 μM; read-out: % Growth Inhibition (GI %)
Text: as §1

[36] = tested on: MDA-MB 231 cells; details: for inhibition: 5 µM

Compound | inhibition at 10 µM [1] | inhibition at 10 µM [2] | inhibition at 10 µM [3] | inhibition at 10 µM [4] | melting point | inhibition at 10 µM [5] | inhibition at 10 µM [6] | inhibition at 10 µM [7] | inhibition at 10 µM [8] | inhibition at 10 µM [9] | inhibition at 10 µM [10] | inhibition at 10 µM [11] | inhibition at 10 µM [12] | inhibition at 10 µM [13] | inhibition at 10 µM [14] | inhibition at 10 µM [15] | inhibition at 10 µM [16] | inhibition at 10 µM [17] | inhibition at 10 µM [18] | inhibition at 10 µM [19] | further results
O=C(c1nc2ccccc2[nH]1)[C@H]1[C@H](c2ccco2)C2CSCN2[C@]12C(=O)Nc1ccccc12 (stereo partly drawn) [Compound 6n, (3S,6′R)-6'-(1H-Benzo [d]imidazole-2-carbonyl)-7'-(furan-2-yl)-3′,6′,7′,7a′-tetrahydro-1′H-spiro [indoline-3.5′-pyrrolo [1,2-c]thiazol]-2-one] | 113% | 109% | 101% | 102% | 240 to 242 °C | 133% | 96.4% | 98.6% | 86.8% | 96% | 102% | 91.7% | 95.6% | 102% | 124% | 110% | 103% | 100% | 101% | 105% | inhibition at 10 µM [20]: 110%; inhibition at 10 µM [21]: 91.3%; inhibition at 10 µM [22]: 102%; inhibition at 10 µM [23]: 97.2%; inhibition at 10 µM [24]: 98.2%; inhibition at 10 µM [25]: 105%; inhibition at 10 µM [26]: 92.5%; inhibition at 10 µM [27]: 89.8%; inhibition at 10 µM [28]: 101%; inhibition at 10 µM [29]: 61.7%; inhibition at 10 µM [30]: 96.8%; inhibition at 10 µM [31]: 101%; inhibition at 10 µM [32]: 84.8%; inhibition at 10 µM [33]: 109%; inhibition at 10 µM [34]: 92.9%; inhibition at 10 µM [35]: 99.2%; IC50 [36]: 6.14 ± 0.246 µM; inhibition [36]: 52.9 ± 2.5%
COc1cc([C@@H]2C3CSCN3[C@]3(C(=O)Nc4ccccc43)[C@H]2C(=O)c2nc3ccccc3[nH]2)cc(OC)c1OC (stereo partly drawn) [Compound 6i, (3S,6′R)-6'-(1H-Benzo [d]imidazole-2-carbonyl)-7'-(3,4,5-trimethoxyphenyl)-3′,6′,7′,7a′-tetrahydro-1′H-spiro [indoline-3.5′-pyrrolo [1,2-c]thiazol]-2-one] | 106% | 95.2% | 104% | 105% | 245 to 247 °C | 104% | 99.6% | 102% | 91.8% | 94.1% | 99.6% | 101% | 99.5% | 99.2% | 115% | 93.7% | 100% | 99.9% | 93.1% | 105% | inhibition at 10 µM [20]: 104%; inhibition at 10 µM [21]: 102%; inhibition at 10 µM [22]: 101%; inhibition at 10 µM [23]: 94.3%; inhibition at 10 µM [24]: 103%; inhibition at 10 µM [25]: 101%; inhibition at 10 µM [26]: 99%; inhibition at 10 µM [27]: 94.2%; inhibition at 10 µM [28]: 107%; inhibition at 10 µM [29]: 86.6%; inhibition at 10 µM [30]: 100%; inhibition at 10 µM [31]: 99.3%; inhibition at 10 µM [32]: 102%; inhibition at 10 µM [33]: 103%; inhibition at 10 µM [34]: 104%; inhibition at 10 µM [35]: 100%; inhibition [36]: 46 ± 1.41%
